These results are taken from US6911445B2, “Antidepressant cycloalkylamine derivatives of heterocycle-fused benzodioxans” (Wyeth, priority 2002, dated 2005).

The target of one data set is T1, human 5HT1A receptors (Homo sapiens, UniProt P08908).
T1 construct: expressed in transfected cells; host or cells: CHO cells
T1 sequence (P08908 1-422): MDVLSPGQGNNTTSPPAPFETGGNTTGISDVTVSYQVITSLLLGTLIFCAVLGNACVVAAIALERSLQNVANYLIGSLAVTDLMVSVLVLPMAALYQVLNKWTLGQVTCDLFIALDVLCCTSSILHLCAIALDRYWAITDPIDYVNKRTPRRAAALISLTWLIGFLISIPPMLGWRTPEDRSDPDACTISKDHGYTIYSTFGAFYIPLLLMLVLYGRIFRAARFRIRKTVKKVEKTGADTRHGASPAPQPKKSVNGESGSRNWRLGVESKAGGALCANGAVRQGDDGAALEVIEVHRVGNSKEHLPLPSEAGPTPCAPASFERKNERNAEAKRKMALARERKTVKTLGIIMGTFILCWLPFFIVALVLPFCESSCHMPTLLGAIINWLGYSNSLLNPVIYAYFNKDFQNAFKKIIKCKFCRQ
Nature of the data set: Displacement of [3H] 8-OH-DPAT from 5HT1A receptor in stably transfected CHO cells. It counts as binding. As to conditions: CHO cells with human 5HT1A receptors, read-out: 5HT1A Receptor Affinity Ki. An excerpt:
High affinity for the serotonin 5HT1A receptor was established by testing the claimed compound's ability to displace [^3H] 8-OH-DPAT (dipropylamino-tetralin) from the 5HT1A serotonin receptor following a modification of the procedure of Hall, et al., J. Neurochem. 44, 1685 (1985), which utilizes CHO cells stably transfected with human 5HT1A receptors.
(In general: Loss of bound radioactivity is the signal in a displacement assay; it reports binding, not function.)

The next data set deals with T2, serotonin transporter (Rattus norvegicus, UniProt P31652).
T2 construct: displace ^3H-paroxetine from male rat frontal cortical membranes; from tissue; host or cells: male rat frontal cortex membranes
Nature of the data set: Displacement of 3H-paroxetine from male rat frontal cortical membranes (serotonin transporter affinity). The class given is binding. The conditions noted are these: read-out: 5-HT Transporter Affinity Ki.

Data set [1] deals with T3, cloned human 5HT1A receptors (Homo sapiens, UniProt P08908).
T3 construct: expressed in transfected cells
T3 sequence (P08908 1-422): T1 sequence (P08908 1-422)
Nature of the data set: 35S-GTPγS binding assay, membranes containing cloned human 5HT1A receptors. It counts as biochemical. As to conditions: for IC50: antagonist potency, reversal of the standard agonist 8-OH-DPAT, read-out: 5HT1A Function IC50; for 5HT1A Function (Imax): maximum inhibitory effect, value in parentheses. As to the method:
Antagonist activity at 5HT1A receptors was established by using a ^35S-GTPγS binding assay similar to that used by Lazareno and Birdsall (Br. J. Pharmacol. 109:1120, 1993), in which the test compound's ability to affect the binding of ^35S-GTPγS to membranes containing cloned human 5HT1A receptors was determined. Agonists produce an increase in binding whereas antagonists produce no increase but rather reverse the effects of the standard agonist 8-OH-DPAT. The test compound's maximum inhibitory effect is represented as the Imax, while its potency is defined by the IC50.
(In general: GTPγS is a poorly hydrolysed GTP analogue; its binding reports G protein activation.)

Molecules are shown by their SMILES. Where a name gives a salt, the structure may show the parent alone.

T2 sequence (P31652 whole entry): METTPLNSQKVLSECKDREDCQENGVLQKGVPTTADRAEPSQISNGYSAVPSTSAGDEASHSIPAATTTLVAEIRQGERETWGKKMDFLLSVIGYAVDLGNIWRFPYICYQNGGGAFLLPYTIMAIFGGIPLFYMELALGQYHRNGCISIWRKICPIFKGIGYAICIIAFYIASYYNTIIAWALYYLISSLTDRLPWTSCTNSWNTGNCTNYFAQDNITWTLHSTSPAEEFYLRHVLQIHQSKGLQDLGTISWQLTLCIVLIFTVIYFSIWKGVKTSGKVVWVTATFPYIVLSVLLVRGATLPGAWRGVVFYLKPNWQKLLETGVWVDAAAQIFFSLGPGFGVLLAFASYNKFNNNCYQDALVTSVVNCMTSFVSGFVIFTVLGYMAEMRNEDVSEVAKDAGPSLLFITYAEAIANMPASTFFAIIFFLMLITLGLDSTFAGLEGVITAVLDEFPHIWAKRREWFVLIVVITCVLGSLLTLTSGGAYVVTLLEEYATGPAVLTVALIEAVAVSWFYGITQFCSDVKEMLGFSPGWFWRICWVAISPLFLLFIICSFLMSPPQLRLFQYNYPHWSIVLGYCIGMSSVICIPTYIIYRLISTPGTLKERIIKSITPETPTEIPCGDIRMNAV

Take `Cc1nc2ccc3c(c2o1)O[C@@H](CN[C@H]1CC[C@H](c2c[nH]c4ccc(F)cc24)C1)CO3` (mixture of isomers) [Example 10, N-[(trans)-3-(5-Fluoro-1H-indol-3-yl)cyclopentyl]-N-{[(8S)-2-methyl-7,8-dihydro[1,4]dioxino[2,3-g][1,3]benzoxazol-8-yl]methyl}amine]: the melting point (in general, the temperature of the solid-liquid transition) lay in the range of 79 to 82 °C. Also, at human 5HT1A receptors, the Ki (commonly a dissociation constant, usually derived from enzyme kinetics or from competition with a known ligand) was found to be 28.6 nM. Also, the Ki on serotonin transporter worked out at 1.38 nM. Further, in data set [1], the IC50 (usually the midpoint of a concentration-inhibition curve) turned out to be 172 nM and the 5HT1A Function (Imax) came to 85%.

`Cc1nc2ccc3c(c2o1)O[C@@H](CN[C@H]1CC[C@@H](c2c[nH]c4ccc(F)cc24)C1)CO3` (mixture of isomers) [Example 11, N-[(cis)-3-(5-Fluoro-1H-indol-3-yl)cyclopentyl]-N-{[(8S)-2-methyl-7,8-dihydro[1,4]dioxino[2,3-g][1,3]benzoxazol-8-yl]methyl}amine] yielded a melting point of 79 to 82 °C. Further, the Ki on human 5HT1A receptors is 16.4 nM. The Ki on serotonin transporter was found to be 1.46 nM. Also, in data set [1], the IC50 was found to be 274 nM and the 5HT1A Function (Imax) came out at 100%.

As for `Cc1ccc2c3c(ccc2n1)OCC(CNC1CCC(c2cn(C)c4ccc(F)cc24)C1)O3` (single isomer, unassigned) (as salt: fumarate) [Example 5], the melting point was in the range of 200 to 201 °C.

Take `Cc1nc2ccc3c(c2o1)O[C@@H](CN[C@H]1CC[C@@H](c2c[nH]c4ccc(F)cc42)CC1)CO3` [Example 12]: the melting point is 80 to 82 °C. For the same molecule, on human 5HT1A receptors, the Ki was 84.4 nM. Besides, the Ki on serotonin transporter is 11 nM.
